Laboratory results published in paper PMC6099630, “Synthesis, Antiviral and Cytotoxic Activity of Novel Terpenyl Hybrid Molecules Prepared by Click Chemistry” (Molecules : A Journal of Synthetic Chemistry and Natural …, 2018).

Experiments:
in vitro = assay type: cell-based; details: African green monkey
Protocol: (§1) The synthetic compounds and acyclovir (ACV, Sigma) were dissolved in dimethylsulfoxide (DMSO) and diluted with Eagle’s minimal essential medium supplemented with 1.5% inactivated fetal bovine serum (FBS) and 50 μg/mL gentamicin (MEM 1.5%).
(§2) Vero and Hep-2 cells were grown in MEM supplemented with 10% inactivated FBS and 50 µg/mL gentamicin and maintained in MEM 1.5%. Raw 264.7 cells were grown in Dulbecco’s Modified Eagle’s Medium (DMEM) supplemented with 10% FBS and 50 µg/mL gentamicin and maintained in DMEM 1.5%. C6 cells were grown in DMEM-F12 supplemented with 2.5% FBS50 µg/mL gentamicin and 15% horse serum (HS) and maintained in DMEM-F12 supplemented with 1.5% FBS. HSV-1 KOS, thymidine kinase-deficient (TK−) B2006 and Field strains of HSV-1 were used and propagated at low multiplicity of infection (m.o.i.) on Vero cells.
Cell viability was determined using the tetrazolium salt MTT (3-(4,5-dimethylthiazol-2-yl)-2,5-diphenyltetrazolium bromide, Sigma) according to the manufacturer’s instructions. […] The absorbance was measured on a MPR-A 4i microplate reader (Eurogenetics, Tipperary, Ireland) using a test wavelength of 570 nm and a reference wavelength of 630 nm. Results were expressed as a percentage of absorbance of treated cell cultures with respect to untreated ones. […]

HSV-1 KOS strain = assay: Cytopathic effect assay, HSV-1 KOS; assay type: cell-based, herpes simplex virus type 1 (HSV-1); details: Human alphaherpesvirus 1; inhibition of 50% viral cytopathic effect; m.o.i. 0.1 PFU/cell, 48 h p.i.; nonlinear regression
Protocol: as §1, §2
(§3) Cells grown in 96-well plates were infected or not with HSV-1 (KOS, Field and B2006 strains) at a m.o.i. of 0.1 PFU/cell. After 1-h adsorption at 37 °C, the inoculum was removed and medium containing or not the compounds was added, in triplicate. […] Then, cells were fixed with 10% formaldehyde for 15 min at room temperature, washed once with distilled water and stained with 0.05% crystal violet in 10% ethanol over 30 min. […] The absorbance of each well was measured on an Eurogenetics MPR-A 4i microplate reader using a test wave-length of 590 nm.

HSV-1 Field strain = assay: Cytopathic effect assay, HSV-1 Field; assay type: cell-based, herpes simplex virus type 1 (HSV-1); details: Human alphaherpesvirus 1; inhibition of 50% viral cytopathic effect; m.o.i. 0.1 PFU/cell, 48 h p.i.; nonlinear regression
Protocol: as §1, §2, §3

[1] = system: HSV-1 B2006 strain (thymidine kinase-deficient, TK−); assay: microbe, parasite or virus in culture; assay type: cell-based, herpes simplex virus type 1 (HSV-1); details: Human alphaherpesvirus 1, 48 h, read-out: EC50 B2006
Protocol: as §1, §2, §3

What does the source list for `Nc1nc2c(ncn2COCCO)c(=O)[nH]1` [ACV, Acyclovir]?
CC50 at 48 h (in vitro): > 1000 µM; EC50 (HSV-1 KOS strain): 8.2 ± 1 µM; EC50 (HSV-1 Field strain): 73 ± 1 µM; EC50 [1]: 50 ± 2 µM
